Reference: patent US20240125703A1, “SYSTEMS AND METHODS FOR Q[…] OBSERVED VISUALIZATION OF FL[…] AGENTS” (Stryker Corporation, priority 2022, published 2024)

How the values were obtained:
ureters [1] = assay: Contrast quantification / contrast enhancement factor (CEF) from surgical video frames of ureters, laparoscopic/minimally invasive colorectal surgery (Phase 2); assay type: in vivo, human; conditions: for contrast quantification: single subject, 1.0 mg dose
Experimental: The following example illustrates using contrast quantification, according to method 100, to assess the visual effectiveness of different fluorescence imaging agent doses. In this example, subjects undergoing laparoscopic/minimally invasive colorectal surgery received doses of either 0.3 mg, 1.0 mg, or 3 mg of pudexacianinium chloride (Chemical formula (A))—an indocyanine-green derivative fluorescence imaging agent with hydrophilic properties and rapid urinary clearance without metabolism after intravenous administration—at the start of the minimally invasive surgery procedure and the normal colectomy was completed.
At pre-specified time intervals during the surgery, the surgeon utilized a fluorescence visualization system to examine the retroperitoneum and attempted to visualize the ureters. The surgical videos generated by the fluorescence visualization system were recorded. Frames from these surgical videos were analyzed according to method 100 to quantify the color contrast observable by the surgeon when a bolus of the fluorescence imaging agent passed through the ureters.
Baseline and fluorescence-containing images for a subject who received a 1.0 mg dose of the fluorescence imaging agent are illustrated in FIG. 5—baseline image 400 and fluorescence-containing image 402. The color images 400, 402 are full color surgical video frames generated by a fluorescence visualization system that combines full color and fluorescence frames into a combined frame in which the fluorescence signal is captured in the green component of the frame. The color images 400, 402 capture a portion of a ureter, which is visible in bright green in fluorescence-containing image 402. The fluorescence-containing image 402 was captured while a bolus of the fluorescence imaging agent was present in the portion of the ureter within the field of view, and the baseline image 400 was captured shortly after the bolus of the fluorescence imaging agent had at least partially passed through the portion of the ureter.
Each of the color images 400, 402 was imported in a video analysis software and exported as separate greyscale bitmaps of the red (R), green (G) and blue (B) color components corresponding to each full color image frame.
Next, a line was plotted that transects the ureter at the same location on both the fluorescence-containing and baseline bitmaps for each R, G, and B color component. Graphs were subsequently created that plot the bitmap signal intensity values at each point along the line segment against position on the line segment for each line segment in each color component. Red, green and blue graphs were constructed for each pair of fluorescence-containing — baseline color components. Exemplary graphs are illustrated in FIGS. 7A-C, which include the graphs for each color component for the fluorescence-containing image (“dye”) and baseline image (“no-dye”) on the same plot. FIG. 7A is the graph for the red color component for the fluorescence-containing and baseline images, FIG. 7B is the graph for the blue color component for the fluorescence-containing and baseline images, and FIG. 7C is the graph for the green color component for the fluorescence-containing and baseline images,
At least the graph for the green component was then analyzed to identify, according to steps 104 and 106 of method 100, regions along the line segment (shown in FIG. 7D as position 0-300) that—by comparison with the bitmap—lie clearly inside the anatomical boundaries of the ureter (a region encompassed by the anatomy of interest according to step 104) or clearly outside of those same anatomical boundaries (a region not encompassed by the anatomy of interest according to step 106). Note that the “inside” and “outside” regions are different for the fluorescence imaging agent (“dye”) and baseline (“no Dye”) images due to the differences in the field of view of the color images. […]

[2] = In vitro NIR-F of ASP5354 in 96 well plates, microplate reader (excitation 780 nm, emission 820 nm); assay type: physicochemical; conditions: 0.01-1000 μg/mL in 96 well plates
Experimental: The following example illustrates using a measure of visual enhancement of the anatomy of interest in a color image (a contrast enhancement factor), generated according to method 100, as an alternative to biological samples for bioequivalence and bioavailability assessments of a fluorescence imaging agent, in particular the fluorescence dye ASP5354 (pudexacianinium). In this example, two in vitro studies were performed to determine the effect of ASP5354 concentration on near-infrared fluorescence (NIR-F). In the first study, ASP5354 (0.01-1000 μg/mL) was added to 96 well plates, the plates placed in a microplate reader, and subjected to a near-infrared excitation frequency of 780 nm. The emitted NIR-F determined at a wavelength of 820 nm. The fluorescence intensity increased as the concentration of pudexacianinium increased and tended to plateau at concentrations greater than or equal to 100 μg/mL.

pig ureters ex vivo = assay: NIR-F of pudexacianinium instilled in pig ureters ex vivo (PDE-NEO NIR-F imager); conditions: for NIR-F Intensity: mean, three ureters
Experimental: In the second study, pudexacianinium (0.01-10 μg/mL) was instilled in pig ureters ex vivo and the NIR-F determined using a PDE-NEO NIR-F imager. Here too, the NIR-F intensity increased with increasing concentrations of pudexacianinium with the fluorescence intensity tending to plateau at concentrations equal to or greater than 1 μg/mL, as shown in the table below. Thus, the fluorescence activity of pudexacianinium can be visualized in the lumen of ureters.

ureters [3] = assay: In vivo ureter visualization in Gottingen minipigs, NIR-F camera, visual assessment by three clinicians
Experimental: Next, the ability to visualize ureters in vivo was assessed in Gottingen minipigs. The animals were anesthetized, laparotomized and then intravenously injected with pudexacianinium (0.001 or 0.01 mg/kg). Videos of the abdominal cavity were taken using a NIR-F camera and assessed visually by three independent clinicians for up to three hours.

[4] = Urine concentration of pudexacianinium in minipigs; assay type: in vivo, Gottingen minipigs; conditions: 0.01 mg/kg; over 3 hour observation period
Experimental: A direct translation of the nonclinical pharmacology visualization results in the intended clinical use and dose in humans is considered feasible given the simple elimination route of the dye in both cases (eliminated entirely through renal system) and given the physiologic comparability between porcine and human kidneys. The 0.01 mg/kg dose used in pigs translates to an approximate human equivalent dose of 0.7-0.8 mg/participant. This is consistent with the dose recommendation for the clinical Phase 3 study (1 mg/participant).

ureters [5] = assay: Qualitative in vivo ureter visualization in Yorkshire pig (Stryker 1588 AIM System and SPY-PHI open field system); conditions: 0.01 mg/kg, iv; either imaging system; prior to any dissection
Experimental: In a second qualitative in vivo study, pudexacianinium (0.01 mg/kg, iv) was injected into a healthy female Yorkshire pig and the ureters were visualized using examples of an image guided surgery system 10 of FIG. 1A—a Stryker Corporation 1588 AIM System and a Stryker Corporation SPY-PHI open field system—prior to any dissection.

ureter(s) = assay: Phase 2 dose ranging study, Visualization Review Committee (VRC) assessment of ureter visualization; assay type: in vivo, human
From the text: The results from the Phase 1 study provided the foundation for Phase 2 study, a randomized open-label, dose ranging study for ureter visualization, using ASP5354 in participants undergoing laparoscopic/minimally invasive colorectal surgery.
The results of the Phase 2 study support the use of pudexacianinium as an intraoperative ureter visualization (surgeon's ability to identify/locate the ureter from the surrounding structures) during the entire abdominopelvic surgical procedure. […] As a result, the VRC recommended moving forward with the 1 mg per participant dose for Phase 3.

[6] = Dye in ureter, 1 mg (N = 6) including expansion
[7] = No Dye in ureter, 0.3 mg (N = 3)
[8] = No Dye in ureter, 1 mg (N = 6) including expansion

Which results are given for pudexacianinium chloride?
Contrast quantification, Mean (ureters [1]; 0.3 mg, N 3, Baseline image): 1.10; Contrast quantification, Mean (ureters [1]; 0.3 mg, N 3, Fluorescence-containing image): 1.84; proportion of data with CEF above 1.5 (ureters [1]; 1 mg and 3 mg, dye): ≥ 90%; Contrast quantification, Mean (ureters [1]; 1.0 mg, N 6, Fluorescence-containing image (first column of the dose)): 2.55; Contrast quantification, Mean (ureters [1]; 1.0 mg, N 6, head printed Fluorescence-containing image (second column of the dose)): 1.06; Contrast quantification, Mean (ureters [1]; 3.0 mg, N 3, Fluorescence-containing image (first column of the dose)): 3.23; Contrast quantification, Mean (ureters [1]; 3.0 mg, N 3, head printed Fluorescence-containing image (second column of the dose)): 1.09; CEF, Mean (SD) (ureters [1]; Dye in ureter, 0.3 mg (N = 3)): 1.84 (0.46); CEF, Median (ureters [1]; Dye in ureter, 0.3 mg (N = 3)): 1.77; CEF, Min-Max (ureters [1]; Dye in ureter, 0.3 mg (N = 3)): 1.3-3.0; CEF, Mean (SD) (ureters [1]; Dye in ureter, 1 mg (N = 3)): 2.97 (1.03); CEF, Median (ureters [1]; Dye in ureter, 1 mg (N = 3)): 2.96; CEF, Min-Max (ureters [1]; Dye in ureter, 1 mg (N = 3)): 1.6-5.6; CEF, Mean (SD) (ureters [1]; [6]): 2.55 (0.95); CEF, Median (ureters [1]; [6]): 2.28; CEF, Min-Max (ureters [1]; [6]): 1.3-5.6; CEF, Mean (SD) (ureters [1]; Dye in ureter, 3 mg (N = 3)): 3.23 (1.70); CEF, Median (ureters [1]; Dye in ureter, 3 mg (N = 3)): 2.64; CEF, Min-Max (ureters [1]; Dye in ureter, 3 mg (N = 3)): 1.2-7.7; CEF, Mean (SD) (ureters [1]; [7]): 1.10 (0.13); CEF, Median (ureters [1]; [7]): 1.05; CEF, Min-Max (ureters [1]; [7]): 0.9-1.3; CEF, Mean (SD) (ureters [1]; No Dye in ureter, 1 mg (N = 3)): 1.06 (0.12); CEF, Median (ureters [1]; No Dye in ureter, 1 mg (N = 3)): 1.07; CEF, Min-Max (ureters [1]; No Dye in ureter, 1 mg (N = 3)): 0.8-1.3; CEF, Mean (SD) (ureters [1]; [8]): 1.06 (0.12); CEF, Median (ureters [1]; [8]): 1.06; CEF, Min-Max (ureters [1]; [8]): 0.8-1.4; CEF, Mean (SD) (ureters [1]; No Dye in ureter, 3 mg (N = 3)): 1.09 (0.10); CEF, Median (ureters [1]; No Dye in ureter, 3 mg (N = 3)): 1.10; CEF, Min-Max (ureters [1]; No Dye in ureter, 3 mg (N = 3)): 0.7-1.2; contrast quantification (ureters [1]; baseline image): 1.3; contrast quantification value for the baseline images (ureters [1]; baseline images, absence of bolus): around 1; contrast quantification (ureters [1]; fluorescence imaging agent image): 2.0; CEF value, all data points (ureters [1]; no dye conditions): below 1.5; reference CEF (ureters [1]; no dye present in the ureter): ~1; concentration at which fluorescence intensity tended to plateau [2]: greater than or equal to 100 μg/mL; NIR-F Intensity (pig ureters ex vivo; 0.01 ug/mL): 0.000 arbitrary units; NIR-F Intensity (pig ureters ex vivo; 0.03 ug/mL): 4.672 arbitrary units; NIR-F Intensity (pig ureters ex vivo; 0.1 ug/mL): 47.945 arbitrary units; NIR-F Intensity (pig ureters ex vivo; 0.3 ug/mL): 125.078 arbitrary units; NIR-F Intensity (pig ureters ex vivo; 1.0 ug/mL): 229.504 arbitrary units; NIR-F Intensity (pig ureters ex vivo; 3.0 ug/mL): 254.867 arbitrary units; NIR-F Intensity (pig ureters ex vivo; 10 ug/mL): 254.808 arbitrary units; concentration at which NIR-F intensity tended to plateau (pig ureters ex vivo; 0.01-10 μg/mL in pig ureters ex vivo): ≥ 1 µg/mL; animals demonstrating ureteral visualization for three hours (ureters [3]; 0.001 mg/kg intravenously): one out of three; animals showing ureteral visualization for the full three hour observation period (ureters [3]; 0.01 mg/kg intravenously): three out of three; urine concentration of pudexacianinium [4]: 1 to 6 µg/mL; visibility of ureters (ureters [5]): readily visible; VRC: adequacy for ureter(s) visualization (ureter(s); 0.3 mg per participant): inadequate for ureter(s) visualization; VRC: ureter(s) visualization (ureter(s); 1 mg per participant, during procedure, at beginning and end): provided ureter(s) visualization during the surgical procedure; VRC: difference in ureter(s) visualization between doses (ureter(s); 1 mg vs 3 mg dose): no notable differences; VRC conclusion on ureter visualization under NIR-F conditions (ureter(s); all doses (0.3, 1, 3 mg per participant)): enhanced visualization of ureter(s); VRC: visualization throughout the duration of the surgical procedure (ureter(s); single dose of 1 mg and 3 mg per participant): consistently occurred
